In patent publication US10752900B2, “Oligonucleotides for modulating gene expression and uses thereof” (BIOGENERA S.P.A., priority 2012, dated 2020):

How the values were obtained:
Type in all cases: cell-based, human
[1] = test system: rabdomyosarcoma cells (RH30); experiment: Cellular proliferation assay (ATP-Lite), RH30 cells
Description: For the purpose of assessing the gene modulation ability of the oligonucleotides of the present invention, the effect of their administration on cell viability was determined. For this purpose 5×10^3 cells per well were seeded into 96-well cell culture plates (experiments conducted in triplicate) with 100 μl of OPTI-MEM (GIBCO BRL) medium containing 4% FBS and 2 mM of L-glutammine. The PNA oligonucleotides were administered at different concentrations (1 μM-2.5 μM-5 μM-10 μM) in order to observe a dose-effect relationship. As regards all the other oligonucleotides, the concentrations at which they administered are listed in the paragraph: The viability of the treated cells was determined at 48, 72, 96 and 168 hours after treatment. Cell viability was assessed by means of an ATP-Lite assay (Luminescence ATP Detection Assay System, PerkinElmer) and is reported as the ratio between the average signal of the treated wells compared to the average value of the wells of untreated control cells. The cells were processed following the instructions provided with the kit. The assays were performed on the same cell lines used to determine the levels of the MYCN gene messenger and listed in the paragraph: Treatments with Oligonucleotides-QT-PCR. The PNAs having SEQ ID NO: 1-12 were also tested on different cell lines which overexpress MYCN (Kelly, SKNBE2c, RH30, […] 1 and H69). The results are shown in Table 6 and confirm the selectivity and specificity of the inhibition effect of the PNAs on the product of protein translation of the MYCN gene. Chimeric oligonucleotides comprising DNA monomers and LNA monomers and having the MYCN gene as their target were tested in vitro on alveolar rabdomyosarcoma cells (RH30). […] The antisense oligonucleotides designed and synthesized by the Applicant according to the parameters described in the present invention were analyzed in vitro on rabdomyosarcoma cells (RH30).

[2] = test system: MYCN gene; experiment: QT-PCR, MYCN mRNA in RH30 cells
Description: For the purpose of assessing the ability of the oligonucleotides of the present invention to modulate the expression of the target genes, their ability to reduce the quantity of messenger RNA was analyzed using the Real-Time PCR technique. For this purpose, use was made of 24-well plates, which were seeded with 5.0×10^4 cells with 0.3 ml of OPTI-MEM (GIBCO BRL) medium, 4% FBS and 2 mM L-glutammine (experiments in triplicate) per well. The cells were incubated for 24 hours at 37° C., in an atmosphere containing 5% CO2 to permit adherence to the base of the wells. Each oligonucleotide analyzed, except for the PNA oligonucleotides, was incubated beforehand with 2 μl of Lipofectamine 2000 (Invitrogen), with 0.3 mL of serum-free OPTI-MEM (GIBCO BRL) medium. For each well, the oligonucleotides were analyzed at the following final concentrations: • the antisense oligonucleotides siRNA and siRNA gapmer (i.e. the oligonucleotides containing one or more monomers of chemically modified nucleic acids at the 3' or 5' end, while in the central portion they have monomers of nucleic acids that have not been modified or have been modified at the level of the phosphodiester bond as a phosphorothioate bond) were used at 200 nM; • the antisense oligonucleotides containing phosphorothioate DNA monomers, the RNA antigene oligonucleotides (agRNA) and the oligonucleotides containing DNA monomers and LNA monomers were used at 10 μM; • the morpholino oligonucleotides were used at a concentration of 1 μM, and • the PNA oligonucleotides were administered at a concentration of 1 μM. The cells were treated with the oligonucleotides, adding FBS up to 4% 6 hours after administration of the same. After 24 hours the total RNA was extracted from each well and purified using the RNeasy Mini Kit (QIAGEN). Assays were performed on 8 cell lines obtained from 5 different human tumours which are correlated with MYCN expression, i.e.: • as a neuroblastoma model use was made of the cell lines Kelly, IMR-32 (where the MYCN gene is amplified and superexpressed) and SKNBE2c and LAN1 (where the MYCN gene is amplified and superexpressed and the p53 gene is mutated); • as a rabdomiosarcoma model use was made of the cell line RH30, where the MYCN gene is amplified and superexpressed; • as a Wilms' tumour model use was made of the cell line WiT49, where the MYCN gene is amplified and superexpressed; • as a retinoblastoma model use was made of the cell line Y79, where the MYCN gene is amplified and superexpressed; and • as a model of small cell lung cancer use was made of the cell line H69 where the MYCN gene is amplified and superexpressed. As a control, use was made of the same cell lines as listed above treated with sterile water instead of oligonucleotides. Each RNA sample was quantified (in duplicate) using a NanoDrop ND-1000 spectrophotometer (NanoDrop Technologies). The first strand of cDNA was produced using the cDNA Synthesis Kit for RT-PCR (Roche). For the cDNA synthesis reaction a total of 1 μg of RNA was used. For the real-time PCR, 10 ng of cDNA in a final volume of 20 μl was used with SYBR Green Master Mix 2× (Applied Biosystems) (3 identical experiments were conducted in triplicate). Two housekeeping genes were used as positive controls: GAPDH and beta-actin (ACTB). The conditions of the QT-PCR reaction were: 10 min at 95° C., 20 sec at 95° C., and 30 sec at 60° C., for 50 cycles. The PNAs having SEQ ID NO: 1-12 were also tested on different cell lines which overexpress MYCN (Kelly, SKNBE2c, RH30, […] 1 and H69). The results are shown in Table 6 and confirm the selectivity and specificity of the inhibition effect of the PNAs on the product of protein translation of the MYCN gene. Chimeric oligonucleotides comprising DNA monomers and LNA monomers and having the MYCN gene as their target were tested in vitro on alveolar rabdomyosarcoma cells (RH30). […]

[3] = test system: Kelly cells; experiment: Cellular proliferation assay (ATP-Lite), Kelly cells; conditions: Table 7, SEQ ID NO: 5 and guanine-group mutants
Description: For the purpose of assessing the gene modulation ability of the oligonucleotides of the present invention, the effect of their administration on cell viability was determined.
For this purpose 5×10^3 cells per well were seeded into 96-well cell culture plates (experiments conducted in triplicate) with 100 μl of OPTI-MEM (GIBCO BRL) medium containing 4% FBS and 2 mM of L-glutammine.
The PNA oligonucleotides were administered at different concentrations (1 μM-2.5 μM-5 μM-10 μM) in order to observe a dose-effect relationship.
As regards all the other oligonucleotides, the concentrations at which they administered are listed in the paragraph:
The viability of the treated cells was determined at 48, 72, 96 and 168 hours after treatment.
Cell viability was assessed by means of an ATP-Lite assay (Luminescence ATP Detection Assay System, PerkinElmer) and is reported as the ratio between the average signal of the treated wells compared to the average value of the wells of untreated control cells. The cells were processed following the instructions provided with the kit.
The assays were performed on the same cell lines used to determine the levels of the MYCN gene messenger and listed in the paragraph: Treatments with Oligonucleotides—QT-PCR.
(§1) As far as the PNA oligonucleotides are concerned, the results regarding their ability to inhibit the transcription of the MYCN gene and proliferation of Kelly cells are shown in Table 1.
The ability of the tested oligonucleotides to inhibit the messenger of the gene of interest was measured and the proliferative capacity of the cells following administration of the oligonucleotides was also assessed.

[4] = test system: MYCN gene; experiment: QT-PCR, MYCN mRNA in Kelly cells; parameters: mRNA Inhibition (%)(Kelly): concentration or dose not given beside the values; conditions: for mRNA Inhibition (%)(Kelly): Table 7, SEQ ID NO: 5 and guanine-group mutants
Description: For the purpose of assessing the ability of the oligonucleotides of the present invention to modulate the expression of the target genes, their ability to reduce the quantity of messenger RNA was analyzed using the Real-Time PCR technique.
For this purpose, use was made of 24-well plates, which were seeded with 5.0×10^4 cells with 0.3 ml of OPTI-MEM (GIBCO BRL) medium, 4% FBS and 2 mM L-glutammine (experiments in triplicate) per well.
The cells were incubated for 24 hours at 37° C., in an atmosphere containing 5% CO2 to permit adherence to the base of the wells.
Each oligonucleotide analyzed, except for the PNA oligonucleotides, was incubated beforehand with 2 μl of Lipofectamine 2000 (Invitrogen), with 0.3 mL of serum-free OPTI-MEM (GIBCO BRL) medium.
For each well, the oligonucleotides were analyzed at the following final concentrations: • the antisense oligonucleotides siRNA and siRNA gapmer (i.e. the oligonucleotides containing one or more monomers of chemically modified nucleic acids at the 3′ or 5′ end, while in the central portion they have monomers of nucleic acids that have not been modified or have been modified at the level of the phosphodiester bond as a phosphorothioate bond) were used at 200 nM; • the antisense oligonucleotides containing phosphorothioate DNA monomers, the RNA antigene oligonucleotides (agRNA) and the oligonucleotides containing DNA monomers and LNA monomers were used at 10 μM; • the morpholino oligonucleotides were used at a concentration of 1 μM, and • the PNA oligonucleotides were administered at a concentration of 1 μM.
The cells were treated with the oligonucleotides, adding FBS up to 4% 6 hours after administration of the same. After 24 hours the total RNA was extracted from each well and purified using the RNeasy Mini Kit (QIAGEN).
Assays were performed on 8 cell lines obtained from 5 different human tumours which are correlated with MYCN expression, i.e.: • as a neuroblastoma model use was made of the cell lines Kelly, IMR-32 (where the MYCN gene is amplified and superexpressed) and SKNBE2c and LAN1 (where the MYCN gene is amplified and superexpressed and the p53 gene is mutated); • as a rabdomiosarcoma model use was made of the cell line RH30, where the MYCN gene is amplified and superexpressed; • as a Wilms' tumour model use was made of the cell line WiT49, where the MYCN gene is amplified and superexpressed; • as a retinoblastoma model use was made of the cell line Y79, where the MYCN gene is amplified and superexpressed; and • as a model of small cell lung cancer use was made of the cell line H69 where the MYCN gene is amplified and superexpressed.
As a control, use was made of the same cell lines as listed above treated with sterile water instead of oligonucleotides. Each RNA sample was quantified (in duplicate) using a NanoDrop ND-1000 spectrophotometer (NanoDrop Technologies). The first strand of cDNA was produced using the cDNA Synthesis Kit for RT-PCR (Roche). For the cDNA synthesis reaction a total of 1 μg of RNA was used. For the real-time PCR, 10 ng of cDNA in a final volume of 20 μl was used with SYBR Green Master Mix 2× (Applied Biosystems) (3 identical experiments were conducted in triplicate). Two housekeeping genes were used as positive controls: GAPDH and beta-actin (ACTB).
The conditions of the QT-PCR reaction were: 10 min at 95° C., 20 sec at 95° C., and 30 sec at 60° C., for 50 cycles.
as §1
The oligonucleotides were tested in vitro (at a concentration of 2.5 μM) to determine their ability to inhibit the transcription of the gene they are directed against by measuring the levels of the gene messenger in cellular models in which the gene of interest is overexpressed. The methods used are the ones described in example 1. […]

[5] = Table 8, DNA-LNA oligonucleotides used at 10 μM
[6] = Table 8, DNA-LNA oligonucleotides used at 10 μM with Lipofectamine 2000

## SEQ ID NO: 24: single-stranded chimeric DNA-LNA oligonucleotide ATGCCGGGCATGATCT against MYCN (DNA at CT, LNA at AG, backbone and methylation of C not given here)
[1]; [5]
  Cell Prolif. (%): 75%
[2]; [6]
  mRNA inhibition (%): 23%

## SEQ ID NO: 25: single-stranded chimeric DNA-LNA oligonucleotide ATGCCGGGCATGATCT against MYCN (DNA at AG, LNA at CT, backbone and methylation of C not given here)
[1]; [5]
  Cell Prolif. (%): 78%
[2]; [6]
  mRNA inhibition (%): 24%

## SEQ ID NO: 26: double-stranded siRNA against MYCN, sense UGAAGAUGAUGAAGAGGAA, antisense SEQ ID NO: 57 (antisense UUCCUCUUCAUCAUCUUCA; listed as RNA, chemistry not given here)
[1]; Table 9, siRNA and siRNA gapmer used at 200 nM
  Cell Prolif. (%): 28%
[2]; Table 9, siRNA and siRNA gapmer used at 200 nM with Lipofectamine 2000
  mRNA inhibition (%): 82%

## SEQ ID NO: 43: PNA GCTGAGTCGATGCGTG, SEQ ID NO: 5 with all groups of consecutive guanines mutated (all peptide nucleic acid (PNA); antigene PNA, 3' carrier peptide conjugation not given here per molecule)
[3]
  (Kelly) Cell Prolif. %: 100%
[4]
  mRNA Inhibition (%)(Kelly): 0%
[4]; all groups of consecutive guanines of SEQ ID NO: 5 mutated
  inhibitory activity: inhibitory activity of the PNAs to be lost

## SEQ ID NO: 44: PNA GCTGAGTGGATGCGTG, modified SEQ ID NO: 5 with groups of consecutive guanines mutated (all peptide nucleic acid (PNA); antigene PNA, 3' carrier peptide conjugation not given here per molecule)
[3]
  (Kelly) Cell Prolif. %: 89%
[4]
  mRNA Inhibition (%)(Kelly): 25%

## SEQ ID NO: 45: PNA GCTGGGTCGATGCGGG, modified SEQ ID NO: 5 with a group of consecutive guanines mutated (all peptide nucleic acid (PNA); antigene PNA, 3' carrier peptide conjugation not given here per molecule)
[3]
  (Kelly) Cell Prolif. %: 69%
[4]
  mRNA Inhibition (%)(Kelly): 47%

## SEQ ID NO: 46: PNA GTTGGGTGGATGTGGG, modified SEQ ID NO: 5 (all peptide nucleic acid (PNA); antigene PNA, 3' carrier peptide conjugation not given here per molecule)
[3]
  (Kelly) Cell Prolif. %: 60%
[4]
  mRNA Inhibition (%)(Kelly): 58%
